This experiment deals with T1, Penicillin G acylase (PGA).
T1 construct: gene pac; alpha and beta subunits arise from one precursor; E. coli is only a guess (docking used PDB 1GM8)
Kind of experiment: initial hydrolysis rates, Lineweaver-Burk; 6-APA by PDAB colorimetry at […] nm. The experiment is classed as biochemical. Particulars: free enzyme; 20 °C; PBS, pH of kinetic run not printed (optimum pH 8.0); substrate 0.01-0.05 mol/L.

Counter-ions that a name gives are not always drawn.

Broadly, the Km is the concentration of substrate that gives half-maximal velocity.

Consider `CC1(C)S[C@@H]2[C@H](NC(=O)Cc3ccccc3)C(=O)N2[C@H]1C(=O)O` [Penicillin G potassium salt], for which the Km was 22.7 mM.

Source of the values: article PMC10798532, “Enhanced catalytic performance of penicillin G acylase by covalent immobilization onto functionally-modified magnetic Ni0.4Cu0.5Zn0.1Fe2O4 nanoparticles” (PLOS ONE, 2024).
